The record followed here is US11746102B2, “Polymorphs of selinexor” (Karyopharm Therapeutics Inc., priority 2014, dated 2023).

Holding throughout (assay type): physicochemical
Data set [1] can be described thus: Stability of Form A on exposure to humidity/temperature. Here is the method: A comprehensive polymorphism assessment of selinexor was performed in a range of different solvents, solvent mixtures and under a number of experimental conditions based on the solubility of selinexor. Three anhydrous polymorphs of selinexor were observed by XRPD investigation, designated Form A, Form B and Form C.

A short description of data set [2]: Competitive slurry experiment (Form A, Form C, seed of Form B). Conditions: about 1:1 Form A and Form C with Form B seed; matured at 5, 25, 50° C. in ethyl acetate, 30% IPA:70% water, 30% ethanol:70% water; 72 hours and 1 week; in acetonitrile the solvate formed. The method, then:
In a competitive slurry experiment, approximately 1:1 mixtures of Form A and Form C were prepared. The mixtures were then stirred with a seed of Form B (about 5% by weight of the mixture of Form A and Form C). The produced systems were matured at 5° C., 25° C. and 50° C. under stirring in acetonitrile, ethyl acetate, 30% IPA:70% water and 30% ethanol:70% water. The systems were analyzed by XRPD at two different time points: 72 hours and 1 week.
Form D was observed by maturation in acetonitrile. This experiment confirmed Form A as the stable form, compared to Form B and Form C, under the conditions investigated. The presence of acetonitrile led to solvate formation at all of the temperatures investigated.

Data set [3] in a line: Polymorphism studies (cooling, slow evaporation, maturation; XRPD). The settings on record: 8 days maturation RT/50° C., solids analysed by XRPD. Here is the method:
Samples found as clear solutions at −20° C. were placed for slow evaporation at RT using a 25-gauge syringe needle(s) in the septum of the vial. • The solid suspensions observed in 100 volumes of the relative solvent systems at the end of the solubility assessment were placed for 8 days maturation cycling between RT and 50° C. (cycling 4 hours at RT; 4 hours at 50° C.). After the maturation, the solids were recovered and the supernatants were placed for slow evaporation. All the solids obtained by these processes were analyzed by XRPD.

A short description of data set [4]: Particle size analysis (Malvern MS2000, volume-based). Conditions: for d10: 10% of total particle volume no larger than this size, 0.1% lecithin in Isopar G dispersant; for d50: 50% of total particle volume no larger than this size; for d50 / d90 / D[4,3] Volume weighted mean: lecithin in Isopar G dispersant; for d90: 90% of total particle volume no larger than this size; for D[4,3] Volume weighted mean: in µm; for Characteristic of the particle size distribution: overlay of particle size distributions. The source says: Particle size data was acquired using a Malvern Instruments MS2000 equipped with a Hydro2000 μP dispersion unit. Data was collected and analyzed using Mastersizer 2000 v 5.60 software, using volume-based measurements. NIST-traceable glass beads were used as the reference standard.
Details of the method conditions used to analyze particle size are listed below: • Sample refractive index: 1.596 • Sample absorption: 0.001 • Dispersant: 0.100 (w/v) Lecithin in Isopar G • Dispersant refractive index: 1.42 • Pump speed: 2100 rpm • Recirculation time: 2 minutes • Sample measurement time: 30 sec. • Background measurement time: 30 sec. • Model: general purpose • Sensitivity: normal • Particle shape: irregular.
One particle size measurement of each lot of selinexor described in Examples 1-6 was collected using the particle size method conditions described above. Table 4 provides sample information and particle size analysis data for the indicated lot of selinexor under the particle size method analysis conditions described above. FIGS. 5A-5P are particle size distribution graphs and show the particle size distribution of the sample corresponding to the indicated lot of selinexor under the particle size method analysis conditions described above.

A short description of data set [5]: Solubility assessment (visual) of selinexor in solvents and solvent mixtures. The settings on record: for Solubility: starting Form A.

Take `O=C(/C=C\n1cnc(-c2cc(C(F)(F)F)cc(C(F)(F)F)c2)n1)NNc1cnccn1` [Form A]: the Physico-chemical stability entry in data set [1] (exposed for 4 weeks to 25° C./97% relative humidity (RH)) and in data set [1] (exposed for 4 weeks to 40° C./75% RH) was “stable” each time. The “Relative stability of forms in competitive slurry” value in data set [2] was “stable anhydrous form”. For the same compound, the “Stability of the form under solvent-based experimentation” value in data set [3] is given as “stable in most of the conditions investigated”.

For `O=C(/C=C\n1cnc(-c2cc(C(F)(F)F)cc(C(F)(F)F)c2)n1)NNc1cnccn1` [Lot No. 1339-BS-142-1], in data set [4] (listed as 1339-BS-142-1), the d10 is 4.978 μm, the d50 amounted to 11.969 μm, the d90 worked out at 28.331 μm and the “D[4,3] Volume weighted mean” value is on record as 16.614. Besides, the “Characteristic of the particle size distribution” value (from here on “Characteristic”) in data set [4] (listed as 1339-BS-142-1) is “more a unimodal characteristic”.

Regarding `O=C(/C=C\n1cnc(-c2cc(C(F)(F)F)cc(C(F)(F)F)c2)n1)NNc1cnccn1` [Lot No. 1339-BS-142-2], in data set [4] (listed as 1339-BS-142-2), the d10 is given as 6.088 μm, the d50 was 14.468 μm, the d90 is reported as 33.936 μm and the “D[4,3] Volume weighted mean” value came out at 20.889. For the same compound, the “Characteristic” value in data set [4] (listed as 1339-BS-142-2) is given as “more a unimodal characteristic”.

On to `O=C(/C=C\n1cnc(-c2cc(C(F)(F)F)cc(C(F)(F)F)c2)n1)NNc1cnccn1` [Lot No. 1341-AK-109-2], for which, in data set [4] (listed as 1341-AK-109-2), the d10 is recorded as 2.815 μm, the d50 was determined as 10.423 μm, the d90 was 89.782 μm and the “D[4,3] Volume weighted mean” value worked out at 32.779. The “Characteristic” value in data set [4] (listed as 1341-AK-109-2) is given as “distinctly bimodal”.

With `O=C(/C=C\n1cnc(-c2cc(C(F)(F)F)cc(C(F)(F)F)c2)n1)NNc1cnccn1` [Lot No. 1305365], in data set [4] (listed as 1305365), the d10 is on record as 4.905 μm, the d50 came to 14.268 μm, the d90 was found to be 75.098 μm and the “D[4,3] Volume weighted mean” value is recorded as 34.740.

Take `O=C(/C=C\n1cnc(-c2cc(C(F)(F)F)cc(C(F)(F)F)c2)n1)NNc1cnccn1` [Lot No. 1405463]: in data set [4] (listed as 1405463), the d10 stood at 12.062 μm, the d50 is reported as 27.653 μm, the d90 worked out at 64.876 μm and the “D[4,3] Volume weighted mean” value came to 33.740.

Regarding `O=C(/C=C\n1cnc(-c2cc(C(F)(F)F)cc(C(F)(F)F)c2)n1)NNc1cnccn1` [Lot No. PC-14-005], the Minor tertiary mode entry in data set [4] is reported as “approximately 400 μm”. For the same compound, in data set [4] (listed as PC-14-005), the d10 stood at 6.363 μm, the d50 is on record as 18.345 μm, the d90 came to 86.906 μm and the “D[4,3] Volume weighted mean” value amounted to 36.720.

On to `O=C(/C=C\n1cnc(-c2cc(C(F)(F)F)cc(C(F)(F)F)c2)n1)NNc1cnccn1` [Lot No. PC-14-008], for which, in data set [4] (listed as PC-14-008), the d10 was 7.658 μm, the d50 came to 18.290 μm, the d90 turned out to be 42.616 μm and the “D[4,3] Volume weighted mean” value was determined as 22.451. In addition, the “Characteristic” value in data set [4] (listed as PC-14-008) is on record as “more a unimodal characteristic”.

Turning to `O=C(/C=C\n1cnc(-c2cc(C(F)(F)F)cc(C(F)(F)F)c2)n1)NNc1cnccn1` [Lot No. PC-14-009], in data set [4] (listed as PC-14-009), the d10 came to 9.665 μm, the d50 came out at 24.406 μm, the d90 was determined as 68.445 μm and the “D[4,3] Volume weighted mean” value worked out at 32.557. Also, the “Characteristic” value in data set [4] (listed as PC-14-009) was “more a unimodal characteristic”.

`O=C(/C=C\n1cnc(-c2cc(C(F)(F)F)cc(C(F)(F)F)c2)n1)NNc1cnccn1` [Selinexor, (Z)-3-(3-(3,5-bis(trifluoromethyl)phenyl)-1H-1,2,4-triazol-1-yl)-N′-(pyrazin-2-yl)acrylohydrazide]: the Solubility result is recorded as “Not dissolved in 100 v” in data set [5] (20% MeCN:80% Water, volumes of solvent); “Not dissolved in 100 v” in data set [5] (40% MeCN:60% Water, volumes of solvent); “Dissolved in 50 v” in data set [5] (60% MeCN:40% Water, volumes of solvent); “Dissolved in 30 v” in data set [5] (80% MeCN:20% Water, volumes of solvent); “Dissolved in 30 v” in data set [5] (90% MeCN:10% Water, volumes of solvent); “Dissolved in 70 v” in data set [5] (Acetonitrile, volumes of solvent (1 volume in μL = sample mg), assessed at 50° C. and RT). In addition, the “Solubility (visual)” value in data set [5] (IPA:water mixtures having up to 60% water) was “soluble”; in data set [5] (acetonitrile:water mixtures having up to 40% water) it was “soluble”; in data set [5] (heptane, 1,2-dichloroethane, toluene, cumene, diisopropylether, water and isooctane, 5 to 100 volumes), “not soluble”. Moreover, in data set [5] (thirty solvents and solvent mixtures, 50° C./RT), the “Share of the solvent systems investigated in which soluble” value is given as “about 60 % of the solvent systems investigated”.
